Results from publication PMC8583417, “Evaluation of the Antimicrobial Efficacy of N-Acetyl-L-Cysteine, Rhamnolipids, and Usnic Acid—Novel Approaches to Fight Food-Borne Pathogens” (International Journal of Molecular Sciences, 2021).
Converted amounts (≈) assume the structure as drawn.

Assays:
[1] = test system: S. aureus 816; experiment: MIC for further growth of biofilm cells, preformed biofilm (A625nm); assay type: cell-based, Staphylococcus aureus; settings: ≥80% inhibition, 18 h preformed biofilm, 20 h with substance
Experimental: Ten concentrations of NAC, RLs, and UA were tested to determine the minimum inhibitory concentration for planktonic growth, and subsequently, the six highest concentrations were applied on preformed biofilms to evaluate the biofilm eradication ability of the compounds. MIC was defined as the lowest substance concentration able to inhibit at least 80% of microbial growth (MICPC80 for planktonic cells, MICBC80 for further growth of biofilm cells), inhibit 80% of metabolic activity (MICBM80 for biofilm metabolic activity, MICMPB80 for metabolic activity of preformed biofilm), prevent biofilm formation by at least 80% (MICBF80 for biofilm formation), or reduce a preformed biofilm by at least 80% (MICBR80 for biofilm reduction). The results of MICs are summarized in Table 1 (planktonic cells) and Table 2 (biofilm-associated cells).
The determination of MICs was performed according to Chlumsky et al.. […] To evaluate planktonic cells growth (MICPC80) and further growth of biofilm cells (MICBC80), the optical density of the content of the microtiter plates was measured spectrophotometrically at 625 nm before and after 24 h (for biofilm formation) of cultivation or before and after additional 20 h incubation with the tested compound (for preformed biofilm). […] To evaluate the inhibition of biofilm formation (MICBF80) and reduction in preformed biofilms (MICBR80), biomass was quantified using crystal violet staining, and its metabolic activity (MICBM80 and MICMPB80) was estimated by using the MTT (thiazyl tetrazolium bromide, Sigma-Aldrich, USA) reduction assay, both measured spectrophotometrically at 595 nm.
All inhibitions were calculated using the formula of Chlumsky et al. below (Equation (1)):(1) A625(595)nm inhibition (%)=A625(595)nm (control) – A625(595)nm(natural substance)/A625(595)nm (control)× 100 where A625(595)nm (control) is the absorbance of bacterial suspension/biofilm itself, and A625(595)nm(natural substance) is the absorbance of the bacterial suspension/biofilm with the added natural substance (NAC, RLs, and UA). […]

[2] = test system: tested food-borne pathogens; experiment: MIC for bacterial growth, summary over all tested strains; assay type: cell-based; settings: this study
Experimental: (§1) The determination of MICs was performed according to Chlumsky et al.. Briefly, 96-well flat-bottomed microtiter plates were inoculated with 75 µL (for biofilm formation) or 100 µL (for preformed biofilm) of bacterial suspension (A625nm 0.08 to 0.1) in technical triplicates and were then carefully mixed with the dilution series of the test substances (24 h cultivation at 25 °C for S. Infantis, 37 °C for other strains) or were directly cultivated to preform biofilms (18 h). For a positive control of bacterial growth, the inoculum was mixed with a pure sterile medium. Furthermore, the sterile medium was included in the plate as a marker of potential microbial contamination. To evaluate planktonic cells growth (MICPC80) and further growth of biofilm cells (MICBC80), the optical density of the content of the microtiter plates was measured spectrophotometrically at 625 nm before and after 24 h (for biofilm formation) of cultivation or before and after additional 20 h incubation with the tested compound (for preformed biofilm). […] To evaluate the inhibition of biofilm formation (MICBF80) and reduction in preformed biofilms (MICBR80), biomass was quantified using crystal violet staining, and its metabolic activity (MICBM80 and MICMPB80) was estimated by using the MTT (thiazyl tetrazolium bromide, Sigma-Aldrich, USA) reduction assay, both measured spectrophotometrically at 595 nm. […]

[3] = test system: Haemophilus influenza, Pseudomonas aeruginosa, and Streptococcus pneumoniae; parameters: method as in PMID 29234086, PMID 31022884, PMID 27492531; settings: clinical pathogens; cited from earlier work
[4] = test system: Haemophilus influenza, Pseudomonas aeruginosa, and Streptococcus pneumoniae; parameters: method as in PMID 29234086, PMID 31022884, PMID 27492531; settings: clinical pathogens; cited from earlier work; remark: listed apart in the source
[5] = test system: Gram-negative bacteria; experiment: Inhibition of planktonic growth, summary over strains; assay type: cell-based; settings: at maximal tested concentration (RLs 1000 µg/mL, UA 31.3 µg/mL)
Experimental: as §1

[6] = test system: Gram-negative bacteria; experiment: Inhibition of biofilm formation, summary over strains; assay type: cell-based; settings: maximal tested concentration 31.3 µg/mL
Experimental: as §1

[7] = test system: Gram-negative bacteria; experiment: Inhibition of biofilm metabolic activity, summary over strains; assay type: cell-based; settings: maximal tested concentration 31.3 µg/mL
Experimental: as §1

[8] = test system: preformed biofilms of Gram-negative bacteria; experiment: Inhibition of further growth of biofilm cells, summary over strains; assay type: cell-based
Experimental: as §1

[9] = test system: preformed biofilms of Gram-negative bacteria; experiment: Inhibition of metabolic activity of preformed biofilm, summary over strains; assay type: cell-based
Experimental: as §1

[10] = test system: S. aureus 1945^GFPuvr; parameters: method as in PMID 30151647; settings: cited from earlier work

| SMILES | MICBC80 [1] [µg/mL] | MIC for bacterial growth, range over strains [2] | MIC against bacterial growth [3] [µg/mL] | MIC needed for biofilm reduction [4] | maximum inhibition of planktonic growth (MICPC80), range over strains [5] | maximum inhibition (MICBF80), range over strains [6] | maximum inhibition (MICBM80), range over strains [7] | maximum observed inhibition of further growth of biofilm cells [8] | maximum observed inhibition of metabolic activity of preformed biofilm [9] | minimal inhibition concentration, bacterial growth [10] [µg/mL] |
| --- | --- | --- | --- | --- | --- | --- | --- | --- | --- | --- |
| CC(=O)N[C@@H](CS)C(=O)O [NAC, N-Acetyl-L-cysteine] | 3130 | 3130–12,500 µg/mL | 500 to 2500 | 2500–10,000 µg/mL | – | – | – | – | – | – |
| CC(=O)c1c(O)c(C)c(O)c2c1OC1=CC(=O)C(C(C)=O)C(=O)C12C (single isomer, unassigned; (+)) [UA, (+)-usnic acid] | – | – | – | – | 20–42% | 10–47% | 16–47% | up to 61% | up to 53% | 32 (≈ 92.9 µM) |
